Data taken from US7687522B2, “Substituted pyridines and pyrimidines and their use in treatment of cancer” (Amgen Inc., priority 2006, dated 2010).

Molecular target: T1, c-Met (Homo sapiens, UniProt P08581)
T1 construct: A PCR product covering residues 1058-1365 of c-Met (c-Met kinase domain) is generated; made in house; host or cells: baculovirus-infected (insect) cells
Test: c-Met receptor assay (HTRF kinase assay with GST-cMet (P) enzyme, gastrin substrate)
Type: biochemical
Experimental: A PCR product covering residues 1058-1365 of c-Met (c-Met kinase domain) is generated as described in WO 06/116,713 the entirety of which is incorporated herein by reference.
Baculovirus cells are broken in 5× (volume/weight) of Lysis Buffer (50 mM HEPES, pH 8.0, 0.25 M NaCl, 5 mM mercaptoethanol, 10% glycerol plus Complete Protease Inhibitors (Roche (#10019600), 1 tablet per 50 mL buffer). The lysed cell suspension is centrifuged at 100,000×g (29,300 rpm) in a Beckman ultracentrifuge Ti45 rotor for 1 h. The supernatant is incubated with 10 ml of Glutathione Sepharose 4B from Amersham Biosciences (#27-4574-01). Incubation is carried out overnight in a cold room (approximately 8° C.). The resin and supernatant is poured into an appropriately sized disposable column and the flow through supernatant was collected. The resin is washed with 10 column volumes (100 mL) of Lysis Buffer. The GST-cMET is eluted with 45 mL of 10 mM Glutathione (Sigma #G-4251) in Lysis Buffer. The elution is collected as 15 mL fractions. Aliquots of the elution fractions are run on SDS PAGE (12% Tris Glycine gel, Invitrogen, #EC6005BOX). The gel is stained with 0.25% Coomassie Blue stain. Fractions with GST-cMET are concentrated with a Vivaspin 20 mL Concentrator (#VS2002; […]) to a final volume less than 2.0 ml. The concentrated GST-cMET solution is applied to a Superdex 75 16/60 column (Amersham Biosciences # 17-1068-01) equilibrated with 25 mM Tris, pH 7.5, 100 mM NaCl, 10 mM mercaptoethanol, 10% glycerol. The GST-cMET is eluted with an isocratic run of the above buffer, with the eluent collected in 1.0 mL fractions. Fractions with significant OD280 readings are run on another 12% Tris Glycine gel. The peak tubes with GST-cMET are pooled and the OD280 is read with the column buffer listed above as the blank buffer.
Phosphorylation of the purified GST-cMET is performed by incubating the protein for 3 h at RT with the following:
After incubation, the solution is concentrated in a Vivaspin 20 mL Concentrator to a volume less than 2.00 mL. The solution is applied to the same Superdex 75 16/60 column used above after re-equilibration. The GST-cMET is eluted as described above. The elution fractions corresponding to the first eluted peak on the chromatogram are run on a 12% Tris Glycine gel, as above, to identify the fractions with GST-cMET. Fractions are pooled and the OD280 is read with the column buffer used as the blank.
A Kinase reaction Buffer is prepared as follows:
When the assay is carried out, freshly add:
The HTRF buffer contains: 50 mM Tris-HCl (pH 7.5), 100 mM NaCl, 0.1% BSA, 0.05% Tween 20.5 mM EDTA Fresh add SA-APC (PJ25S Phycolink Streptavidin-Allophycocyanin Conjugate, Prozyme Inc.) and Eu-PT66 (Eu-W1024 labeled anti-phosphorotyrosine antibody PT66, AD0069, Lot 168465, Perkin-Elmer Inc.) to reach the final concentration: • 0.1 nM final Eu-PT66 • 11 nM final SA-APC Methods: 1. Dilute GST-cMet (P) enzyme in kinase buffer as follows: Prepare 8 nM GST-cMet (P) working solution (7.32 μM to 8 nM, 915 X, 10 μL to 9.15 mL). In a 96 well clear plate [Costar # 3365] add 100 μL in eleven columns, in one column add 100 μL kinase reaction buffer alone. 2. Assay plate preparation: Use Biomek FX to transfer 10 μL 8 nM GST-cMet (P) enzyme, 48.4 μL kinase reaction buffer, 1.6 μL compound (in DMSO) (Start concentration at 10 mM, 1 mM and 0.1 mM, sequential dilution 1:3 to reach 10 test points) in a 96 well costar clear plate [Costar # 3365], mix several times. Then incubate the plate at RT for 30 min. 3. Prepare Gastrin and ATP working solution in kinase reaction buffer as follows: Prepare 4 μM Gastrin and 16 μM ATP working solution
Use Biomek FX to add 20 μl ATP and Gastrin working solution to the assay plate to start reaction, incubate the plate at RT for 1 h. 4. Transfer 5 μL reaction product at the end of 1 h into 80 μL HTRF buffer in black plate [Costar # 3356], read on Discover after 30 min incubation.

T1 sequence (P08581 1058-1365): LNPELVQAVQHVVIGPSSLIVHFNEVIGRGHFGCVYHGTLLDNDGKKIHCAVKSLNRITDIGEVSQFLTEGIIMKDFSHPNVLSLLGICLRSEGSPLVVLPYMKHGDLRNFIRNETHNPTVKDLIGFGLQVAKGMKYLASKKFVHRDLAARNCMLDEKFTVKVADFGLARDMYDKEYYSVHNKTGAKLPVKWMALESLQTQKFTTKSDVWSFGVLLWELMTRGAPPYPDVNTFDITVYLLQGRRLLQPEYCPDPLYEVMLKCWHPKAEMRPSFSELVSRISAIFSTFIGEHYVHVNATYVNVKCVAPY

| Structure (SMILES) | Ki [nM] |
| --- | --- |
| Cn1c(Nc2cccc(F)c2)ncc(-c2ccc(Oc3ccnc(NC(=O)N4CCCC4)c3)cn2)c1=O [Example 25, N-(4-(6-(2-(3-fluorophenylamino)-1-methyl-6-oxo-1,6-dihydropyrimidin-5-yl)pyridin-3-yloxy)pyridin-2-yl)pyrrolidine-1-carboxamide] | 11 |
| CN1CCN(C(=O)Nc2cc(Oc3ccc(-c4cnc(Nc5ccccc5)n(C)c4=O)nc3)ccn2)CC1 [Example 7, 4-methyl-N-(4-(6-(1-methyl-6-oxo-2-(phenylamino)-1,6-dihydropyrimidin-5-yl)pyridin-3-yloxy)pyridin-2-yl)piperazine-1-carboxamide] | 87 |
| CNc1nccc(Oc2ccc(-c3cnc(Cc4ccccc4)n(C)c3=O)cc2F)n1 [Example 14, 2-benzyl-5-(3-fluoro-4-(2-(methylamino)pyrimidin-4-yloxy)phenyl)-3-methylpyrimidin-4(3H)-one] | 2340 |
| Cn1c(Nc2ccccc2)ncc(-c2ccc(Oc3ccnc(NC(=O)N4CCOCC4)c3)cn2)c1=O [Example 6, N-(4-(6-(1-methyl-6-oxo-2-(phenylamino)-1,6-dihydropyrimidin-5-yl)pyridin-3-yloxy)pyridin-2-yl)morpholine-4-carboxamide] | 57 |
| Cn1c(Nc2ccc(F)cc2)ncc(-c2ccc(Oc3ccnc(NC(=O)N4CCCC4)c3)cn2)c1=O [Example 10, N-(4-(6-(2-(4-fluorophenylamino)-1-methyl-6-oxo-1,6-dihydropyrimidin-5-yl)pyridin-3-yloxy)pyridin-2-yl)pyrrolidine-1-carboxamide] | 6 |
| Cn1c(Nc2ccccc2)ncc(-c2ccc(Oc3ccnc(NC(=O)N4CCCC4)c3)cn2)c1=O [Example 1, N-(4-(6-(1-methyl-6-oxo-2-(phenylamino)-1,6-dihydropyrimidin-5-yl)pyridin-3-yloxy)pyridin-2-yl)pyrrolidine-1-carboxamide] | 11 |
| Cc1noc(-c2cccc(Nc3nccc(Oc4ccc(-c5cnc(Cc6ccccc6)n(C)c5=O)cc4F)n3)c2)n1 [Example 13, 2-benzyl-5-(3-fluoro-4-(2-(3-(3-methyl-1,2,4-oxadiazol-5-yl)phenylamino)pyrimidin-4-yloxy)phenyl)-3-methylpyrimidin-4(3H)-one] | > 20000 |
| Cn1c(Nc2cccc(F)c2)ncc(-c2ccc(Oc3ccnc(NC(=S)N4CCCC4)c3)cn2)c1=O [Example 26, N-(4-(6-(2-(3-fluorophenylamino)-1-methyl-6-oxo-1,6-dihydropyrimidin-5-yl)pyridin-3-yloxy)pyridin-2-yl)pyrrolidine-1-carbothioamide] | 30 |
| Cn1c(Nc2ccccc2F)ncc(-c2ccc(Oc3ccnc(NC(=S)N4CCCC4)c3)cn2)c1=O [Example 3, N-(4-(6-(2-(2-fluorophenylamino)-1-methyl-6-oxo-1,6-dihydropyrimidin-5-yl)pyridin-3-yloxy)pyridin-2-yl)pyrrolidine-1-carbothioamide] | 110 |
| CCn1c(Nc2ccc(F)cc2)ncc(-c2ccc(Oc3ccnc(NC(=O)N4CCC4)c3)c(F)c2)c1=O [Example 21, N-(4-(4-(1-ethyl-2-(4-fluorophenylamino)-6-oxo-1,6-dihydropyrimidin-5-yl)-2-fluorophenoxy)pyridin-2-yl)azetidine-1-carboxamide] | 12 |
